Test [1] deals with Poly [ADP-ribose] polymerase 2 (Homo sapiens, UniProt Q9UGN5). As to the kind of experiment: PARP Fluorescence Anisotropy Binding Assay. For orientation: In fluorescence polarisation assays a small probe gives low polarisation when free and higher when bound to something large.
Method: (§1) Recombinant full length 6HIS tagged PARP1 protein was diluted to 6 nM with 50 mM Tris pH 8, 0.001% Triton X100, 10 mM MgCl2, 150 mM NaCl and incubated for four hours with an equivalent volume of 2 nM fluorescent probe diluted with 50 mM Tris pH 8, 0.001% Triton X100, 10 mM MgCl2, 150 mM NaCl. The final DMSO concentration of the probe was kept below 1% (v/v).Recombinant full length PARP2 protein was diluted to 6 nM with 50 mM Tris pH 8, 0.001% Triton X100, 10 mM MgCl2, 150 mM NaCl and incubated for four hours with an equivalent volume of 2 nM fluorescent probe diluted with 50 mM Tris pH 8, 0.001% Triton X100, 10 mM MgCl2, 150 mM NaCl. The final DMSO concentration of the probe was kept below 1% (v/v).Recombinant full length PARP3 protein was diluted to 100 nM with 50 mM Tris pH 8, 0.001% Triton X100, 10 mM MgCl2, 150 mM NaCl and incubated for four hours with an equivalent volume of 6 nM fluorescent probe diluted with 50 mM Tris pH 8, 0.001% Triton X100, 10 mM MgCl2, 150 mM NaCl.
For test [2], the target named is Poly [ADP-ribose] polymerase 1 (Homo sapiens, UniProt P09874). As to the kind of experiment: PARP Fluorescence Anisotropy Binding Assay.
Method: as §1

Among the data in BindingDB's records for patent US20250082630 (AstraZeneca, 2025) are IC50 values, retold here.

Where only a bound is given, the exact number is not on record here.

Chain of Poly [ADP-ribose] polymerase 1 (P09874 whole entry): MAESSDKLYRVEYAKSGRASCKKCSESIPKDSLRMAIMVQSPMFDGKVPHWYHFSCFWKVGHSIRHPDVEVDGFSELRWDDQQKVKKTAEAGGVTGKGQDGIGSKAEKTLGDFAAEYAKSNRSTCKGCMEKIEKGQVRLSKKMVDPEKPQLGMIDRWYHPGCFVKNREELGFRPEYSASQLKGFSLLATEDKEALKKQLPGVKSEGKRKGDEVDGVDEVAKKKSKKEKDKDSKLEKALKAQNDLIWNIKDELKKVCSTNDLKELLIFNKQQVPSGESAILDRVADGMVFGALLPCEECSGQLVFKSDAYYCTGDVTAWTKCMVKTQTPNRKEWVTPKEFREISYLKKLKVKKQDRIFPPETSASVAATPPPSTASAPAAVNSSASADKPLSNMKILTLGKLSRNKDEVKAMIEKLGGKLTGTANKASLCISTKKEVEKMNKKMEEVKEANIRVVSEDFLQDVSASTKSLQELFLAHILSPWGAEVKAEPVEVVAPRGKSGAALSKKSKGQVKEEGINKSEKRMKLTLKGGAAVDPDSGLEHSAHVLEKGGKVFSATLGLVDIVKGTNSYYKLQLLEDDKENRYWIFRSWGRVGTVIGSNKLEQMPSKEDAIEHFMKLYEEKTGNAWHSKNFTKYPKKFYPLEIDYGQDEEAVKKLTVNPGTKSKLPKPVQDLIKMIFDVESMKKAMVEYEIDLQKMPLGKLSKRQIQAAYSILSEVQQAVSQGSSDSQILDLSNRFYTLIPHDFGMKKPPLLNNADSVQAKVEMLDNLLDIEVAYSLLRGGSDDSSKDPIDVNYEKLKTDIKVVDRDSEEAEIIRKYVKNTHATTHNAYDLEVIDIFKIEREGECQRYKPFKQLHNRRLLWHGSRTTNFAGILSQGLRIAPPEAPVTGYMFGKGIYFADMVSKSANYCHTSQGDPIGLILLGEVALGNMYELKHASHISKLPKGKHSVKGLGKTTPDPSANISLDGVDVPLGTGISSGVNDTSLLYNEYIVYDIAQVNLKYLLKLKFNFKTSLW
Chain of Poly [ADP-ribose] polymerase 2 (Q9UGN5 whole entry): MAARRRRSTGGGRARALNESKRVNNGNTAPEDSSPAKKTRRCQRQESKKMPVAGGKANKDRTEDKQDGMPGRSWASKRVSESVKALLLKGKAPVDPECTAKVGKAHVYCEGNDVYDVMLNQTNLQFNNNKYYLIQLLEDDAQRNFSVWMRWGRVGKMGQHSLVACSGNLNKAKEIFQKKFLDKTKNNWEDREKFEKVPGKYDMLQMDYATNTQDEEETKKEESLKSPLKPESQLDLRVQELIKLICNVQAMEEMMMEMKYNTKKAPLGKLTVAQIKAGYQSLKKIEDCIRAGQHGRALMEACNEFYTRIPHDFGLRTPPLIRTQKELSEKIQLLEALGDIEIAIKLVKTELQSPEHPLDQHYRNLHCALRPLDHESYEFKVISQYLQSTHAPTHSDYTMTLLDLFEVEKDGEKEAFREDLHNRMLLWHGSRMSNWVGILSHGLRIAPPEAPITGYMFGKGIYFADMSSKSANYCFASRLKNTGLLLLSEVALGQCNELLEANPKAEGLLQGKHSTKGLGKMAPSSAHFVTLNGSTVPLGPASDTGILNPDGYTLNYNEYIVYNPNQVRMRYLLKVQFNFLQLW

In the case of `CNC(=O)c1ccc(N2CCN(Cc3ccc4nc(OC)c(=O)[nH]c4c3C)CC2)c(F)n1` [US20250082630, Example 58], the IC50 in test [1] is greater than 100000 nM; in test [2] it was 8 nM.

Usually IC50 stands for the concentration that inhibits the measured activity by half.
